From patent US20250302795A1, “SMALL MOLECULE COMPOUNDS WITH NEGATIVE REGULATORY EFFECTS ON Nrf2 SIGNALING [sequence] AND THEIR POTENTIAL APPLICATIONS” (Beijing Hebabiz Biotechnology Co., Inc., priority 2022, published 2025)

Experiments:
Format in all cases: in vivo, rat
[1] = Body weight of rats, high-fat diet + CCl4 non-alcoholic steatohepatitis model; conditions: positive control group, in g (unit assumed)
Description: (§1) The normal control group were fed a standard diet while the other groups were exclusively fed a high-fat diet consisting of 88% basal diet +10% lard +2% cholesterol for the initial six weeks. Starting from the seventh week, they received subcutaneous injections of a 30% CCl4 olive oil solution at a dosage of 0.2 ml/100 g behind their back twice per week for a total of four times. Once the model was successfully replicated, the corresponding drugs were administered orally (10 ml/kg) in each treatment group, and both the normal control group and the model group received equal volumes of a 0.5% CMC-Na solution once daily for ten consecutive weeks. Throughout the experimental period, the rats were provided with ad libitum access to food and water, while the animal chamber was maintained under controlled conditions of quietness, natural lighting, a temperature of 25±0.5° C., and a humidity level of 55±5%. The rats' body weights were measured once per week and recorded.
The weight changes of rats in each group were compared by conducting weekly weigh-ins after the experiment.

[2] = tested on: rats with nonalcoholic steatohepatitis induced by a high-fat diet and CCl4; assay: Liver indices, non-alcoholic steatohepatitis model induced by high-fat diet and CCl4; conditions: positive control group
Description: as §1
After blood sampling from the abdominal aorta of rats, the liver tissue was isolated, rinsed with normal saline solution, dried using filter paper, weighed accurately, and subsequently calculated the Liver indices: Liver indices=wet liver weight/body weight×100%.

[3] = tested on: rats with non-alcoholic steatohepatitis induced by high-fat diet; assay: Serum biochemical indices, non-alcoholic steatohepatitis model induced by high-fat diet; conditions: end of 8th week of administration, positive control group
Description: After establishing the model, the drug groups received their respective treatments at a dosage of 10 ml/kg while the normal and model groups received an equal volume of 0.5% CMC-Na solution. The rats were provided with ad libitum access to water and food, while the animal chamber was maintained under controlled conditions of quietness, natural lighting, a temperature of 25±0.5° C., and a humidity level of 55±5%. The rats' body weights were measured once per week and recorded.
At the end of the 8th week of administration, all rats were anesthetized with a 20% ulinastatin solution (10 ml/kg) via an intraperitoneal injection after the final administration. Subsequently, blood was collected from the abdominal aorta post-anesthesia. After standing for 1 hour, the blood was centrifuged at 4° C. and 3000 r/min for 15 minutes to obtain the upper serum fraction which was then stored at −80° C. Following the instructions provided by the biochemical index detection kit, levels of HDL-C, LDL-C, NEFA, AST, ALT, UA, TC, TG, FPG and FINS in rat serum were determined.

Question: What does the source list for `COC(=O)c1cc(OC)c2c(c1-c1c(CO)cc(OC)c3c1OCO3)OCO2` [Bicyclol]?
Answer: body weight ([1]; week 1): 195.81 ± 5.12; body weight ([1]; week 2): 252.07 ± 9.62; body weight ([1]; week 3): 293.51 ± 34.27; body weight ([1]; week 4): 366.45 ± 19.21; body weight ([1]; week 5): 404.78 ± 18.71; body weight ([1]; week 6): 438.13 ± 24.81; body weight ([1]; week 7): 471.76 ± 26.05; body weight ([1]; week 8): 493.73 ± 28.93; body weight ([1]; week 9): 500.11 ± 35.71; body weight ([1]; week 10): 516.75 ± 35.02; body weight ([1]; week 11): 483.11 ± 32.67; body weight ([1]; week 12): 486.89 ± 36.07; body weight ([1]; week 13): 508.69 ± 60.33; body weight ([1]; week 14): 526.54 ± 51.97; body weight ([1]; week 15): 536.32 ± 44.50; body weight ([1]; week 16): 559.17 ± 38.21; body weight ([1]; week 17): 573.81 ± 44.40; body weight ([1]; week 18): 581.09 ± 46.08; Liver Indices [2]: 3.48 ± 0.41 %; HOMA-IR ([3]; FPG x FINS/22.5): 1.04; ALT ([3]; serum): 547.14 U/L; AST ([3]; serum): 19.65 U/L; HDL-C ([3]; serum): 1.34 mmol/L; LDL-C ([3]; serum): 0.91 mmol/L; NEFA ([3]; serum): 0.92 mmol/L; TC ([3]; serum): 2.76 mmol/L; TG ([3]; serum): 0.83 mmol/L; UA ([3]; serum): 81.3 µmol/L
